# According to patent US8481458B2, “Adjuvant for pesticides” (priority 2002, dated 2013):
# Legend:
# [1] = test system: Alternaria solani; assay: Fungicide for control of Early Blight on tomatoes; format: in vivo; conditions: tomato plants innoculated with the fungi; ratings after one week
# Source text: The tomato plants were innoculated with the fungi. The ratings were made after one week on the percent leaves infected with Alternaria and also the number with bad damage—necrosis.
# [2] = test system: Xanthomonas campestris; assay: Bactericide on bacterial leaf spot on tomatoes; format: in vivo; conditions: tomato plants innoculated with the bacteria; ratings after two weeks
# Source text: The tomato plants were innoculated with the bacteria. […] The ratings were made after two weeks on the percent leaves infected.
# [3] = test system: fireblight on Southern Crepe Myrtle; assay: Streptomycin for control of fireblight on Southern Crepe Myrtle; conditions: infected plants sprayed until wet; ratings after two days
# [4] = test system: Eastern Tent caterpillar; assay: Ingestion insecticide sprayed on the tent; format: in vivo; conditions: evaluated 1 day after application
# Procedure: This test involved the evaluation of an ingestion insecticide on the Eastern Tent caterpillar. The insecticide was mixed in a tank at the shown rate and sprayed on the tent, and the evaluation was performed after 1 day following application.
# [5] = test system: potato vines; assay: Dessication of potato vines before harvest (speed); format: in vivo; conditions: for Defol %: at the time printed in column Hour; for Hour: time at which the printed Defol % was seen
# Source text: This example was used to how various permeabilizers are able to improve the speed in which various active components are able to obtain their desired effects on treated plants. In this example, a combination of oxalic acid and citric acid (Adjuvant 1) was used in combination with the harvest aid chemicals paraquat and diquat for the dessication of potato vines before harvest and compared to the commercial rates paraquat and diquat.
# [6] = test system: cotton; assay: Cotton defoliation with oxalic acid, EDTA, citric acid as adjuvants, field plots; format: in vivo; conditions: Day 7 after spraying, test size field plots
# Procedure: Oxalic acid (Adj II), EDTA (Adj III), and citric acid (Adj IV) were used as an adjuvants with harvest aid chemicals and compared to the commercial products ethephon and ethephon plus cyclanilide. The comparison was for defoliation only at 7 days after spraying on cotton. The tests were conducted on test size field plots, at dosages of 1 pound or 0.5 pounds per acre (#/ac).
smiles,measurement,setting,value
"N#Cc1c(Cl)c(Cl)c(Cl)c(C#N)c1Cl [Chlorothalonil 2.5 pt/ac, chlorothalonil]",Infected Leaflets,[1],60%
same,Infected Leaves,[1],42%
same,Leaflets with >50% Necrosis,[1],42%
"[Cu+2].[OH-].[OH-] [Copper 2#/acre, copper hydroxide]",Percent Leaves Infected,[2],63%
"[H]/N=C(/N)N[C@H]1[C@H](O)[C@@H](O)[C@H](O[C@@H]2O[C@@H](C)[C@](O)(C=O)[C@H]2O[C@@H]2O[C@@H](CO)[C@H](O)[C@@H](O)[C@@H]2NC)[C@@H](N/C(N)=N\[H])[C@@H]1O [Streptomycin, streptomycin]",Level Required for Control,[3],60 ppm
"CS/C(C)=N\OC(=O)N(C)SN(C)C(=O)O/N=C(\C)SC [Thiodicarb 0.1%, Thiodicarb]",Insecticide Efficacy,[4],32%
"c1cc[n+]2c(c1)-c1cccc[n+]1CC2 [diquat 2 qt/ac, diquat]",Defol %,[5],96%
same,Hour,[5],24 h
"O=P(O)(O)CCCl [eth 1#/ac, ethephon]",Defol %,[6],72%
"C[n+]1ccc(-c2cc[n+](C)cc2)cc1 [paraquat 2 qt/ac, paraquat]",Defol %,[5],98%
same,Hour,[5],36 h
